Measurements from the NIST ThermoML archive (doi:10.1021/je060339m).

Conditions: Liquid

CCOC(C)=O [ethyl acetate]
mass density [kg/m3]
Conditions	298.15 K	303.15 K	308.15 K	313.15 K	318.15 K	323.15 K	328.15 K	333.15 K	338.15 K	343.15 K
100 kPa	894	887.6	881.4	875.2	868.8	862.7	856.4	850.4	844	837.5
1000 kPa	894.7	888.5	882.3	876.1	869.8	864	857.8	851.7	845.4	839.1
2000 kPa	895.7	889.5	883.3	877.2	871	865.1	859.2	853	846.8	840.6
3000 kPa	896.7	890.5	884.4	878.3	872.2	866.2	860.5	854.4	848.2	842
3800 kPa	897.4	891.3	885.3	879.2	873.1	867.1	861.5	855.4	849.3	843.2
5000 kPa	898.8	892.7	886.7	880.6	874.5	868.6	862.5	856.8	850.8	844.5
10000 kPa	903.4	897.5	891.7	885.8	880	874.2	868.4	862.9	857.1	851.2
15000 kPa	907.7	902	896.4	890.7	885.1	879.4	873.9	868.5	863	–
20000 kPa	912	906.3	900.9	895.4	889.8	884.3	879	873.8	868.5	–
25000 kPa	916.1	910.7	905.4	899.8	894.5	889.2	884.1	879	873.9	–
30000 kPa	921.1	915.9	910.7	905.3	900.1	895	890.1	885.2	880.3	–
35000 kPa	926.3	921.2	916.2	910.9	905.9	900.9	896.2	891.4	886.7	–
